From the NIST ThermoML archive (doi:10.1016/j.jct.2015.08.014)

Experiment: xn = mol fraction of the nth substance listed
Details: 100 kPa, Liquid; for electrical conductivity: Alternating current cell with electrodes; for mass density: Vibrating tube method; for viscosity: Capillary tube (Ostwald / Ubbelohde) method

CCCC[N+]1(C)CCCC1.N#CN=C=[N-] [1-butyl-1-methylpyrrolidinium dicyanamide] + O=C1CCCO1
Details | electrical conductivity [S/m]
283.15 K, Frequency=0.008 MHz, x1 = 0.0463 | 1.17
283.15 K, Frequency=0.008 MHz, x1 = 0.0987 | 1.73
283.15 K, Frequency=0.008 MHz, x1 = 0.1449 | 1.93
283.15 K, Frequency=0.008 MHz, x1 = 0.1859 | 2.028
283.15 K, Frequency=0.008 MHz, x1 = 0.2493 | 1.926
283.15 K, Frequency=0.008 MHz, x1 = 0.3029 | 1.84
283.15 K, Frequency=0.008 MHz, x1 = 0.3845 | 1.66
283.15 K, Frequency=0.008 MHz, x1 = 0.4985 | 1.407
283.15 K, Frequency=0.008 MHz, x1 = 0.6954 | 1.07
283.15 K, Frequency=0.008 MHz, x1 = 0.9013 | 0.849
283.15 K, Frequency=0.008 MHz, x1 = 1 | 0.786
283.15 K, Frequency=0.00857143 MHz, x1 = 0.0463 | 1.17
283.15 K, Frequency=0.00857143 MHz, x1 = 0.0987 | 1.73
283.15 K, Frequency=0.00857143 MHz, x1 = 0.1449 | 1.93
283.15 K, Frequency=0.00857143 MHz, x1 = 0.1859 | 2.028
283.15 K, Frequency=0.00857143 MHz, x1 = 0.2493 | 1.926
283.15 K, Frequency=0.00857143 MHz, x1 = 0.3029 | 1.84
283.15 K, Frequency=0.00857143 MHz, x1 = 0.3845 | 1.66
283.15 K, Frequency=0.00857143 MHz, x1 = 0.4985 | 1.407
283.15 K, Frequency=0.00857143 MHz, x1 = 0.6954 | 1.07
283.15 K, Frequency=0.00857143 MHz, x1 = 0.9013 | 0.849
283.15 K, Frequency=0.00857143 MHz, x1 = 1 | 0.786
283.15 K, Frequency=0.00892857 MHz, x1 = 0.0463 | 1.17
283.15 K, Frequency=0.00892857 MHz, x1 = 0.0987 | 1.73
283.15 K, Frequency=0.00892857 MHz, x1 = 0.1449 | 1.93
283.15 K, Frequency=0.00892857 MHz, x1 = 0.1859 | 2.028
283.15 K, Frequency=0.00892857 MHz, x1 = 0.2493 | 1.926
283.15 K, Frequency=0.00892857 MHz, x1 = 0.3029 | 1.84
283.15 K, Frequency=0.00892857 MHz, x1 = 0.3845 | 1.66
283.15 K, Frequency=0.00892857 MHz, x1 = 0.4985 | 1.407
283.15 K, Frequency=0.00892857 MHz, x1 = 0.6954 | 1.07
283.15 K, Frequency=0.00892857 MHz, x1 = 0.9013 | 0.849
283.15 K, Frequency=0.00892857 MHz, x1 = 1 | 0.786
283.15 K, Frequency=0.00961538 MHz, x1 = 0.0463 | 1.17
283.15 K, Frequency=0.00961538 MHz, x1 = 0.0987 | 1.73
283.15 K, Frequency=0.00961538 MHz, x1 = 0.1449 | 1.93
283.15 K, Frequency=0.00961538 MHz, x1 = 0.1859 | 2.028
283.15 K, Frequency=0.00961538 MHz, x1 = 0.2493 | 1.927
283.15 K, Frequency=0.00961538 MHz, x1 = 0.3029 | 1.84
283.15 K, Frequency=0.00961538 MHz, x1 = 0.3845 | 1.66
283.15 K, Frequency=0.00961538 MHz, x1 = 0.4985 | 1.407
283.15 K, Frequency=0.00961538 MHz, x1 = 0.6954 | 1.07
283.15 K, Frequency=0.00961538 MHz, x1 = 0.9013 | 0.849
283.15 K, Frequency=0.00961538 MHz, x1 = 1 | 0.786
283.15 K, Frequency=0.01 MHz, x1 = 0.0463 | 1.17
283.15 K, Frequency=0.01 MHz, x1 = 0.0987 | 1.73
283.15 K, Frequency=0.01 MHz, x1 = 0.1449 | 1.93
283.15 K, Frequency=0.01 MHz, x1 = 0.1859 | 2.028
283.15 K, Frequency=0.01 MHz, x1 = 0.2493 | 1.927
283.15 K, Frequency=0.01 MHz, x1 = 0.3029 | 1.84
283.15 K, Frequency=0.01 MHz, x1 = 0.3845 | 1.66
283.15 K, Frequency=0.01 MHz, x1 = 0.4985 | 1.407
283.15 K, Frequency=0.01 MHz, x1 = 0.6954 | 1.07
283.15 K, Frequency=0.01 MHz, x1 = 0.9013 | 0.849
283.15 K, Frequency=0.01 MHz, x1 = 1 | 0.786
293.15 K, Frequency=0.0005 MHz, x1 = 0.0463 | 1.36
293.15 K, Frequency=0.0005 MHz, x1 = 0.0987 | 2.03
293.15 K, Frequency=0.0005 MHz, x1 = 0.1449 | 2.31
293.15 K, Frequency=0.0005 MHz, x1 = 0.1859 | 2.426
293.15 K, Frequency=0.0005 MHz, x1 = 0.2493 | 2.37
293.15 K, Frequency=0.0005 MHz, x1 = 0.3029 | 2.28
293.15 K, Frequency=0.0005 MHz, x1 = 0.3845 | 2.108
293.15 K, Frequency=0.0005 MHz, x1 = 0.4985 | 1.84
293.15 K, Frequency=0.0005 MHz, x1 = 0.6954 | 1.45
293.15 K, Frequency=0.0005 MHz, x1 = 0.9013 | 1.19
293.15 K, Frequency=0.0005 MHz, x1 = 1 | 1.122
293.15 K, Frequency=0.001 MHz, x1 = 0.0463 | 1.36
293.15 K, Frequency=0.001 MHz, x1 = 0.0987 | 2.04
293.15 K, Frequency=0.001 MHz, x1 = 0.1449 | 2.31
293.15 K, Frequency=0.001 MHz, x1 = 0.1859 | 2.435
293.15 K, Frequency=0.001 MHz, x1 = 0.2493 | 2.37
293.15 K, Frequency=0.001 MHz, x1 = 0.3029 | 2.29
293.15 K, Frequency=0.001 MHz, x1 = 0.3845 | 2.111
293.15 K, Frequency=0.001 MHz, x1 = 0.4985 | 1.84
293.15 K, Frequency=0.001 MHz, x1 = 0.6954 | 1.46
293.15 K, Frequency=0.001 MHz, x1 = 0.9013 | 1.19
293.15 K, Frequency=0.001 MHz, x1 = 1 | 1.122
293.15 K, Frequency=0.0015 MHz, x1 = 0.0463 | 1.37
293.15 K, Frequency=0.0015 MHz, x1 = 0.0987 | 2.04
293.15 K, Frequency=0.0015 MHz, x1 = 0.1449 | 2.31
293.15 K, Frequency=0.0015 MHz, x1 = 0.1859 | 2.44
293.15 K, Frequency=0.0015 MHz, x1 = 0.2493 | 2.37

Details | electrical conductivity, 293.15 K [S/m] | mass density, 283.15 K [kg/m3] | viscosity, 293.15 K [mPa·s]
x1 = 0.0463 | 1.37 | – | –
x1 = 0.0987 | 2.05 | 1116.14 | 3.07
x1 = 0.1449 | 2.31 | – | –
x1 = 0.1859 | 2.45 | 1099.19 | 4.46
x1 = 0.2493 | 2.37 | – | –
x1 = 0.3029 | 2.29 | 1080.61 | 6.96
x1 = 0.3845 | 2.116 | – | –
x1 = 0.4985 | 1.84 | 1057.34 | 13.06
x1 = 0.6954 | 1.46 | 1040.35 | 21.74
x1 = 0.9013 | 1.19 | 1027.12 | 33.58
x1 = 1 | 1.123 | 1021.96 | 40.25
